The results in this text go back to patent US20240252463A1, “METHODS OF TREATING FIBROTIC PATHOLOGIES” (Mayo Foundation for Medical Education and Research, priority 2018, published 2024).

The test system of one data set is YAP/TAZ. Kind of data set: YAP/TAZ localization in pulmonary epithelial (NHAEpC) and endothelial (NHMVEC) cells. It counts as cell-based, human. To be noted: FIG. 2b. As to the method: Scale bar represents 100 μm. […] Scale bar represents 100 μm.
ImmunofluorescenceMicroscopy: Cells were plated into 96 well plates (Corning 3603) in their specific growth media and allowed to attach (8 hours). Media was then exchanged for the indicated conditions for each experiment. Cells were fixed in 3.7% formalin (Sigma-Aldrich), permeabilized in 0.25% Triton X-100 (Sigma-Aldrich) and then blocked with 1% BSA for 1 h. Cells or tissue sections were incubated overnight with mouse monoclonal antibody against αSMA (Sigma-Aldrich F3777), and/or a rabbit monoclonal antibody against YAP/TAZ (Cell Signaling D24E4) diluted 1:200 in PBS with 1% BSA. Cells were then washed and exposed to flourescence-conjugated secondary antibodies (Invitrogen) diluted 1:1000 and DAPI (Thermo Fisher Scientific). Images were taken with a Cytation5 (BioTek) microscope. For scoring αSMA positive cells (FIG. 3b), an observer blinded to the treatment conditions counted αSMA-positive cells using a visual threshold for bright fibrous staining; a minimum of 200 cells was counted for each condition. YAP/TAZ localization was quantified (FIG. 2, 6, 8) using Gen5 (Biotek) software. […] Quantification of double positive (YAP/TAZ and αSMA) cells from lung tissue sections (FIG. 4d) was performed similarly; however separate thresholds were established for both YAP/TAZ and αSMA. A minimum of 4000 cells was quantified for each mouse.

Data set [1] has as its system bleomycin-induced pulmonary fibrosis. Kind of data set: Bleomycin Mouse Study, dihydrexidine treatment. It counts as in vivo. As to the method:
Bleomycin Mouse Study: In the initial in vivo siRNA study (FIG. 5), adult male age-matched C57BL/6N mice at 6-8 weeks of age were purchased from the National Cancer Institute (NCI)-Frederick Mouse Repository (Frederick, MD, USA). All experiments were performed in accordance with National Institute of Health guidelines and protocols approved by the Massachusetts General Hospital Subcommittee on Research Animal Care, and maintained all mice in a specific pathogen-free (SPF) environment certified by the American Association for Accreditation of Laboratory Animal Care (AAALAC). 6-8 weeks old mice were anesthetized with ketamine and xylazine before exposure of the trachea. Lung fibrosis was induced by intratracheal injection of bleomycin (50 μl at 1.2 U/kg) or phosphate buffered saline (PBS; as control) on day 0. After 14 days Small interfering RNA (siRNA) duplexes targeting mouse Yap (L-046247-01-0005) or Taz (L-058248-01-0005) mRNA (Dharmacon) or nontargeting control siRNA were administered in vivo by intratracheal instillation at a single dose of 25 μg (each siRNA) per mouse. On day 21 Mice were sacrificed and lungs harvested for collagen determination and biochemical analyses. To obtain BAL samples for total protein concentration determination, lungs were lavaged with six 0.5-ml aliquots of PBS. BAL samples were centrifuged at 3,000 g for 20 min at 4° C. and transferred the supernatants to siliconized low-binding Eppendorf tubes (PGC Scientifics) for subsequent analysis. Total protein concentration of the BAL fluid was determined by BCA Protein Assay Kit (Pierce). In the dihydrexidine treatment studies (FIG. 4), 8 week old female C57/BL6 mice were purchased from Charles River Laboratories. Mouse lung fibrosis was induced with bleomycin (BLEO; Fresenius Kabi) delivered intratracheally (3 U/kg) to the lungs using MicroSprayer® Aerosolizer (Penn-Century). The Sham mice received sterile 0.9% saline instead using identical methods. Mice were weighed every 24 hrs, and both groups were then randomized at day 10 into DHX and Control treatment groups, matching for the degree of weight change. DHX (5 mg/kg) was administered everyday intranasally (i.n.) dissolved in surfactant (infasurf) which has previously shown to aid in spreading to pulmonary aveoli for 14 days. The control groups of mice received the equivalent vehicle dose of surfactant. Following the final DHX treatment, mice were sacrificed and the right lungs were inflated with 4% paraformaldehyde (PFA) and further incubated in 4% PFA for 24 hours prior processing for paraffin embedding. The left lobe of the lung was snap frozen in liquid nitrogen for RNA isolation and hydroxyproline assay. Experimental procedures were approved by the Mayo Clinic Institutional Animal Care and Use Committee and the animals were handled in accordance with their guidelines.
Histological Scoring: Five μm thick sections were cut from Paraffin embedded lung tissues, and the sections were stained either with hematoxylin and eosin (H&E) or with Masson's Trichrome stain kit (Abcam). All H&E-stained slides and trichrome-stained slides were reviewed in a blinded fashion by a thoracic pathologist. The severity of interstitial and peribronchiolar lung immature and mature fibrosis was estimated on a numerical scale according to Ashcroft et al. For scoring purposes, all H&E stained slides were systematically scanned at 100× magnification and successive 100× fields were scored. Scoring was based on the following scale: 0 (no fibrosis), 1 (minimal interstitial and/or peribronchiolar thickening due to fibrosis), 3 (moderate thickening without obvious architectural distortion), 5 (increased fibrosis with formation of fibrous bands and/or small masses), 7 (severe architectural distortion with large areas of fibrosis and areas of honeycomb changes), and 8 (total fibrous obliteration of the field). The predominant score for each field was recorded. The mean of all scores was calculated for each case. […]

Another data set relates to human dermal fibroblasts. Kind of data set: Profibrotic gene expression in human dermal fibroblasts +/- TGFβ. It counts as cell-based. The conditions noted are these: 24 hours +/− 2 ng/mL TGFβ. As to the method: Human dermal fibroblasts treated for 24 hours+/−2 ng/mL TGFβ and D1 agonists: DHX and A68930 prior to RNA isolation. N=2. For all other in vitro experiments, cells were treated as indicated prior to RNA isolation using RNeasy Plus Mini Kit (Qiagen) according to manufacturer's instructions. Isolated RNA (250 ng) was then used to synthesize cDNA using SuperScript VILO (Invitrogen). Quantitative PCR was performed using FastStart Essential DNA Green Master (Roche) and analyzed using a LightCycler 96 (Roche). Data are expressed as a fold change by ΔΔCt relative to GAPDH. For in vivo experiments, tissue was immediately frozen, and stored at −80° C. RNA isolation, cDNA synthesis, and qPCR analysis were performed as above.

Setting [2] is: bleomycin mice, 5 mg/kg once daily i.n., day 24.

As to `Oc1cc2c(cc1O)[C@H]1c3ccccc3CN[C@@H]1CC2` (racemic) [Dihydrexidine, dihydrexidine], the “YAP/TAZ localization in pulmonary epithelial and endothelial cells” value in the data set on YAP/TAZ is on record as “had no effect on YAP/TAZ localization”. The “lung remodeling in the absence of fibrosis (body weight, histology, collagen, gene expression)” value in data set [1] (Sham DHX mice, identical time course and route) was “did not differ from those of control mice”. Also, the weight change entry in data set [1] (bleomycin mice, 5 mg/kg once daily i.n. from Day 10) was “lost significantly less weight”. Besides, in data set [1] (setting [2]), the “lung histology (Ashcroft, blinded pathologist)” value was “nearly completely protected from lung remodeling”; the “staining for YAP and TAZ in the lungs” value was “attenuated by DHX treatment”; the “total collagen in the lungs (hydroxyproline)” value is “nearly identical to sham treated mice”; the “transcript levels of Acta2, Ctgf, Fn1, Col1a1, Col1a2, Yap and Taz in lung” value is reported as “significantly attenuated”. The “profibrotic gene expression in human dermal fibroblasts” value with human dermal fibroblasts is “blocks profibrotic gene expression”.
